Reference: patent US8211883B2, “Topical delivery of phthalocyanines” (priority 2004, dated 2012)
Marks after values point to notes of the source that are not given here.

How the values were obtained:
L5178Y cells = assay: Induction of apoptosis (DNA ladder) in L5178Y cells after PDT; format: cell-based, Mouse; settings: for C × F Ld90, Minimum Demonstrated Condition to Induce Apoptosis: product of concentration and fluence
Procedure: The aliquots were plated in sufficient numbers to produce 50-200 colonies. The dishes were kept in an incubator at 37° C. in an atmosphere of 5% CO2 and 95% air for 10-14 days to allow viable cells to form colonies. Colonies were counted by eye. […] The plating efficiencies of the treated cells are normalized to the plating efficiencies of control cells in each experiment.
Cells were treated with various concentrations of the compounds listed in the table and various light fluences. DNA gels were prepared and examined for the characteristic “ladder” pattern of DNA fragments. For each Pc, the minimum total PDT dose tested (calculated as the product of the minimum phthalocyanine concentration and the minimum fluence) which produced visible DNA fragments is recorded. […] PcXVIII was also added at 0.5 and 1.0 μM.

[1] = tested on: Chinese hamster V79-379 lung fibroblasts; assay: Uptake of phthalocyanines into V79 cells; settings: for n Moles/10^6 Cells/μM (composite uptake value): V79 cells, average of all data, asterisk: listed value is for 1 μM, average would be higher
Procedure: Chinese hamster V79-379 lung fibroblasts were grown in monolayer culture in McCoy's 5A medium (Gibco Laboratories, Grand Island, N.Y.) augmented with 10% calf serum and buffered with 20 mM HEPES (pH 7.4).
Total uptake was determined by scraping the phthalocyanine-treated monolayer, collecting the cells on a glass-fiber filter, and extracting the phthalocyanine in ethanol, as previously described by Ramakrishnan, et al., 1989. (Ramakrishnan, N., M. E. Clay, M. F. Horng, A. R. Antunez, & H. H. Evans, “DNA Lesions and DNA Degradation in Mouse Lymphoma L5178Y Cells After Photodynamic Treatment Sensitized by Chloroaluminum Phthalocyanine”, Photochem. Photobiol, in press, 1989). The amount of drug was determined by absorption at 674 nm and expressed relative to the number of cells, as measured in a Coulter cell counter on an aliquot of the cell population. Controls included cells not treated with drug, medium alone, and drug-containing medium without cells.
The cells were treated with 1 μM AlPcCl (from Eastman Kodak, Rochester, N.Y.) or with phthalocyanine compositions I-VI (0.5-1.0 μM final concentration in the medium) for 18 hours by adding the appropriate volume of a 1.0 mM stock solution in dimethylformamide (DMF) to the culture medium. The growth medium was replaced with 4 mL Hank's balanced salt solution (HBSS), and the cells were irradiated. The light source was a 500 W tungsten-halogen lamp located approximately 29 inches below the surface of a glass exposure tray. The visible light administered to the cells was filtered to allow passage of only that portion of the visible spectrum above 600 nm (Lee Primary red filter No. 106, Vincent Lighting, Cleveland, Ohio). The fluence rate was approximately 0.074 kJ/m^2/s at the level of the cell monolayer.
V79 cells Chinese hamster lung fibroblasts were cultured using the cell culture methods described above. The phthalocyanines listed in table 2 were added to the cultures typically at concentrations of 1 μM, 2 μM, and/or 4 μM and incubated for 18 hours, after which aliquots of the cells were counted and other aliquots were collected on a glass fiber filter. When the filters were dry, the phthalocyanines were extracted into ethanol and the absorption determined at the peak wavelength, usually 668 nm. Values were converted to nmoles taken up by 10^6 cells, using an extinction coefficient of 2.93×10^5.

[2] = tested on: RIF-1 (radiation-induced fibrosarcoma) tumors; assay: PDT of RIF-1 implanted tumors; format: in vivo, C3H/HeN mice; set-up: key to Tumor Responses at 24 hours: complete: no evidence of any tumor mass in any animal; only the scar from the photodynamic therapy was evident.; near complete: evidence of any tumor mass in four or five animals; only some tumor mass in one or two animals.; substantial: a significant tumor shrinkage occurred in all animals. In some animals the tumor response was complete, yet in others the response was not complete.; moderate: some tumor shrinkage was evident in some animals. In animals with some tumor shrinkage, scar formation was evident.; slight: some tumor decrease occurred in one or two mice; settings: 675 nm; for Doubling Time of Initial Tumor Volume after PDT: controls 4 days
Procedure: The relative effectiveness at reducing tumor volume of selected phthalocyanine compounds at a given dosage was compared in vivo. RIF-1, i.e., radiation-induced fibrosarcoma, tumors were implanted into the backs of C3H/HeN mice. One tumor was implanted per mouse. Each of the phthalocyanine compounds listed in Table 7 was sonicated and vortexed in corn oil to produce a suspension. When the tumors reached […] in diameter and 2-3 mm in thickness, each mouse received 1 mg/kg in 0.1 mL of the corn oil, of the phthalocyanine suspension. For comparison, select mice received a conventional photosensitizer; either 5 mg/kg of chloroaluminum phthalocyanine tetrasulfonate, herein also referred to as “AlPcTS” in phosphate buffered saline or 5 mg/kg of Photofrin®-II in 5% dextrose. Twenty-four hours after the photosensitizers were administered, the tumors were irradiated with visible radiation delivered by an argon-pumped dye laser. The mice that received a phthalocyanine photosensitizer received light having a wavelength of 675 nm and the mice that received the Photofrin® II photosensitizer received light having a wavelength of 630 nm. Each tumor received 135 J/cm^2 of radiation. Tumor size was measured every day using calipers. The initial tumor volume was 50±10 mm^3. Tumor volume was calculated according to the hemiellipsoid model by the formula: V=½(4π)/3×(½×(w/2))×h
• complete—no evidence of any tumor mass in any animal; only the scar from the photodynamic therapy was evident. • near complete—evidence of […] in four or five animals; only some tumor mass in one or two animals. • substantial—a significant tumor shrinkage occurred in all animals. In some animals the tumor response was complete, yet in others the response was not complete. • moderate—some tumor shrinkage was evident in some animals. In animals with some tumor shrinkage, scar formation was evident. • slight—some tumor decrease occurred in one or two mice.

[3] = tested on: Chinese hamster V79-379 lung fibroblasts; assay: Clonogenic cell survival of V79 cells after photodynamic treatment; format: cell-based; settings: for LD 90 (light dosage that kills 90% of cells): 0.5 μM, 18 hours, 675 nm red light, VII# preplated data only, XXI* not totally soluble at 0.5 mM
Procedure: Cells were irradiated at a density of approximately 2×10^6 per 25 cm^2 flask. Immediately after irradiation, the cell monolayer was treated with trypsin, and appropriate aliquots were plated in triplicate to give 100 to 200 colonies in each 10-cm Petri dish. Cell survival was determined by the ability of the cells to form colonies containing at least 50 cells. The response of cells treated with 1 μM AlPcCl and light was compared in each experiment.
Photocytotoxicity of the phthalocyanines compounds I to VI was also assessed by clonogenic assay (Table 1, FIG. 1). In all experiments, 1 μM AlPcCl was included for comparison purposes. From the survival curves (FIG. 1), the fluence reducing the cell survival to 10% (F10) was obtained. The ratio of the F10 for AlPcCl and the F10 for the test compound is recorded in Table 1. Compounds I and II appear to be nearly as efficient photosensitizers as AlPcCl, while compound IV (assayed at half the concentration) was almost twice as efficient as the standard AlPcCl. […] However, in spite of the low efficiency of compound V in inhibiting cell growth, survival measurements were made for this compound, because it was taken up into V79 cells somewhat more efficiently than compounds III and VI.
In order to take differences in cellular uptake into consideration in the assessment of the relative efficiency of these phthalocyanines as photosensitizers of V79 cells, the survival data were replotted against the product of intracellular phthalocyanine concentration and light fluence (FIG. 2). From these curves, the product of intracellular concentration and light fluence reducing survival to 10% (CF10) was obtained, and comparisons of the values for AlPcCl and the test compounds are recorded in Table 1. By this and the other criteria, compound IV appears to be the most efficient photosensitizer. However, when consideration is given to the lesser cell uptake of compound V, it appears to be about as strong a photosensitizer as compound IV.
Using the cell culture methods described above, V79 cells Chinese hamster lung fibroblasts were treated with either 0.5 or 1.0 μM of the phthalocyanines listed in Table 3. About 18 hours thereafter, the cells were irradiated with increasing doses of 675 nm broad band red light from a 500 W tungsten-halogen lamp fitted with a 600 nm high pass filter, to determine the light dosage that would kill 90% of the phthalocyanine treated cells. Where 90% of the cells were not killed, the maximum percent of cells killed were determined, (expressed as % survival) and the related light dosage recorded.

[4] = tested on: Mouse lymphoma L5178y-R cells; assay: Clonogenic cell survival of PDT-treated LY-R cells; format: cell-based; settings: 0.5 μM
Procedure: Mouse lymphoma L5178y-R (hereinafter also referred to as “LY-R”) cells were grown in suspension culture as described in Ramakrishnan N., Oleinick, N. L. Clay, M. E., Homg, M. F., Antunez, A. R., and Evans H. H., Photochem. Photobiol. 50, 373-378, 1989 and Agarwal, M. L., Clay, M. E., Harvey, E. J., Evans, H. H., Antunez, A. R., and Oleinick, N. L., Cancer Res., 51, 5993-5996, 1991.
The cells were used while in exponential growth. Stock solutions of either 0.5 or 1 mM of PcIV, PcXII, PcX, PcXVIII were prepared in dimethylformamide unless otherwise indicated and added to the 10 mL medium at a rate of 1 μL per mL. After allowing 18 hours for uptake of the phthalocyanine into the cells, the flasks containing the cultures were placed on a glass exposure tray above a 500-W tungsten-halogen lamp. The exposure tray was fitted with a 600-nm high-pass filter. Flasks were exposed to various fluences of red light (up to 30 kJ/m^2) at a fluence rate of approximately 74 W/m^2). After irradiation, the cells were collected by centrifugation.
For measurement of clonogenic cell survival, aliquots were plated in medium containing soft agar as described in Ramakrishnan N., Oleinick, N. L. Clay, M. E., Homg, M. F., Antunez, A. R., and Evans H. H., Photochem. Photobiol. 50, 373-378, 1989. The aliquots were plated in sufficient numbers to produce 50-200 colonies. The dishes were kept in an incubator at 37° C. in an atmosphere of 5% CO2 and 95% air for 10-14 days to allow viable cells to form colonies. Colonies were counted by eye. Controls treated with the phthalocyanine alone had plating efficiencies of about […]. The plating efficiencies of the treated cells are normalized to the plating efficiencies of control cells in each experiment. For measurement of the induction of apoptosis, DNA was isolated from the treated and control cells 2 hours after photodynamic therapy, subjected to electrophoresis on 1.5% agarose, stained with ethidium bromide, and visualized by UV transillumination, as described in Agarwal et al. The results are shown in Tables 4, 5 and 6 and in FIG. 3.

[5] = 1 mg/kg in corn oil, 135 J/cm^2, light 24 h after dosing
[6] = 1 mg/kg in corn oil, 135 J/cm^2
[7] = 5 mg/kg in phosphate buffered saline, 135 J/cm^2

C[Si](C)(CCCCNS(C)(=O)=O)O[Si]1(O[Si](C)(C)CCCCNS(C)(=O)=O)n2c3c4ccccc4c2N=C2N=C(N=c4c5ccccc5c(n41)=NC1=NC(=N3)c3ccccc31)c1ccccc12 [Compound VIII, SiPc[OSi(CH3)2(CH2)4NHSO2CH3]2]
induction of apoptosis (L5178Y cells; 1 μM at a fluence of 30 kJ/m^2): did not induce apoptosis | Uptake Into V79 Cells, 1 μM ([1]; 18 hours): 0.1 ± 0.04 n Moles/10^6 cells | Uptake Into V79 Cells, 4 μM ([1]; 18 hours): 0.8 ± 0.01 n Moles/10^6 cells | n Moles/10^6 Cells/μM (composite uptake value) [1]: 0.2 n Moles/10^6 Cells/μM | Tumor Responses at 24 hours [2, 5]: slight | Doubling Time of Initial Tumor Volume after PDT [2, 6]: 4 days | Maximum Effect (% survival at kj/m^2) ([3]; 1 μM, at 30 kj/m^2): 94% at 30

CCN(CCC[Si](C)(C)O[Si]1(O)n2c3c4ccccc4c2N=C2N=C(N=c4c5ccccc5c(n41)=NC1=NC(=N3)c3ccccc31)c1ccccc12)CCN(C)C (stereo not drawn) [Compound X, HOSiPcOSi(CH3)2(CH2)3N(CH2CH3)(CH2)2N(CH3)2]
Ld50 (fluence that reduces cell survival to 50%) [4]: 2.38 kJ/m^2 | Ld90 (fluence that reduces cell survival to 10%) [4]: 4.19 kJ/m^2 | activity relative to PcXII ([4]; from LD50/LD90 fluences): 44% | normalized plating efficiency, AVG. ([4]; light dose 0 kJ/m^2): 100 | normalized plating efficiency, AVG. ([4]; light dose 2 kJ/m^2): 71.8 | normalized plating efficiency, AVG. ([4]; light dose 3 kJ/m^2): 30.1 | normalized plating efficiency, AVG. ([4]; light dose 4 kJ/m^2): 20.5 | normalized plating efficiency, AVG. ([4]; light dose 5 kJ/m^2): 0.43 | normalized plating efficiency, AVG. ([4]; light dose 6 kJ/m^2): 0.031 | normalized plating efficiency, AVG. ([4]; light dose 8 kJ/m^2): 0.00058 | Fluence, Minimum Demonstrated Condition to Induce Apoptosis (L5178Y cells; 0.5 μM): 6.0 kJ/m^2 | C × F Ld90, Minimum Demonstrated Condition to Induce Apoptosis (L5178Y cells; 0.5 μM): 3.0 kJ/m^2 | Fluence, Minimum Demonstrated Condition to Induce Apoptosis (L5178Y cells; 1.0 μM): 3.0 kJ/m^2 | C × F Ld90, Minimum Demonstrated Condition to Induce Apoptosis (L5178Y cells; 1.0 μM): 3.0 kJ/m^2 | Uptake Into V79 Cells, 1 μM ([1]; 18 hours): 0.6 ± 0.2 n Moles/10^6 cells | Uptake Into V79 Cells, 4 μM ([1]; 18 hours): 3.3 ± 1.4 n Moles/10^6 cells | n Moles/10^6 Cells/μM (composite uptake value) [1]: 0.7 n Moles/10^6 Cells/μM | LD 90 (light dosage that kills 90% of cells) [3]: 7 kj/m^2

CN1CCN(CCC[Si](C)(C)O[Si]2(O)n3c4c5ccccc5c3N=C3N=C(N=c5c6ccccc6c(n52)=NC2=NC(=N4)c4ccccc42)c2ccccc23)CC1 (stereo not drawn) [Compound XXVIII, HOSiPcOSi(CH3)2(CH2)3NC4H8NCH3]
Fluence, Minimum Demonstrated Condition to Induce Apoptosis (L5178Y cells; 0.3 μM): 3.0 kJ/m^2 | C × F Ld90, Minimum Demonstrated Condition to Induce Apoptosis (L5178Y cells; 0.3 μM): 0.9 kJ/m^2 | Uptake Into V79 Cells, 1 μM ([1]; 18 hours): 1.2 ± 0.2 n Moles/10^6 cells | Uptake Into V79 Cells, 2 μM ([1]; 2 μM, 18 hours): 3.6 ± 1.0 n Moles/10^6 cells | Uptake Into V79 Cells, 4 μM ([1]; 18 hours): 11.4 ± 0.05 n Moles/10^6 cells | n Moles/10^6 Cells/μM (composite uptake value) [1]: 1.2* n Moles/10^6 Cells/μM | Tumor Responses at 24 hours [2, 5]: complete | Doubling Time of Initial Tumor Volume after PDT [2, 6]: 24 days | LD 90 (light dosage that kills 90% of cells) [3]: 1.8 kj/m^2

chloroaluminum phthalocyanine tetrasulfonate [AlPcTS, reference compound]
Tumor Responses at 24 hours [2, 7]: substantial | Doubling Time of Initial Tumor Volume after PDT [2, 7]: 7 days
